From BindingDB's records for patent US11590142 (Bugworks Research, 2023)
pIC50: −log10 of the molar value.

Target: DNA gyrase (Escherichia coli, UniProt P0AES4+P0AES6)
Assay: Enzyme Inhibition Assay
Experimental: The reactions were then started with the addition of 60 ng relaxed pBR322 plasmid DNA and continued for 45 min at 37° C. The reaction mixture contained 35 mM Tris.HCl (pH 7.5), 24 mM KCl, 1.8 mM spermidine, 4 mM MgCl2, 2 mM DTT, 6.5% (w/v) glycerol, 0.1 mg/mL BSA, and 1 mM ATP. The reaction was then stopped by addition of 0.75 L of Proteinase K (20 mg/mL) and 3 μL of 2% SDS and further incubated at 37° C. for 30 min. This was followed by the addition of 4 μL of STEB (40% (w/v) sucrose, 100 mM Tris-HCl pH8, 1 mM EDTA, 0.5 mg/ml Bromophenol Blue), and the supercoiled/relaxed forms of plasmid DNA were separated by agarose gel electrophoresis. The 1% agarose gels were run for 3 h at 4V/cm in 1×TAE (40 mM Tris, 20 mM Acetic acid, 1 mM EDTA). To visualize the DNA the gels were stained for 10 min with 0.7 g/mL ethidium bromide and excess dye was removed by several washes with water. IC50 were determined by quantifying the supercoiled and relaxed DNA in each of the reactions from a gel image by a densitometric method using the Quantity One Software (Bio-rad).

SMILES | pIC50
Cn1c(=O)cnc2ccc(OCCNC[C@H]3CN(c4ccc5c(n4)NC(=O)CO5)C(=O)O3)nc21 [US11590142, Compound 3] | 7.33
Cn1c(=O)ccc2ncc(OCCNC[C@H]3CN(c4ccc5c(n4)NC(=O)CO5)C(=O)O3)nc21 [US11590142, Compound 5] | 7.49
